One assay has as its system Streptococcus. Put plainly: Group A Streptococcus viability loss, dose response, counter-screen for streptokinase expression inhibitor project, luminescence, BacTiterGlo (AID 1915).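 Further: potency for reduction of bacterial viability or growth.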 The assay is classed as functional, organism-based. (Counterscreens check selectivity or assay interference.)
Assay [1] in a line: cells. In kind it is functional, cell-based.
The subject of assay [2] is Streptococcus sp. 'group A'. As to the kind of experiment: growth inhibition of control SK(-) GAS strain, dose response, counter-screen for streptokinase expression inhibitor project, luminescence, kanamycin, BacTiterGlo, confirmation (AID 1900). In kind it is functional, organism-based.
Assay [3] has as its target Heat shock protein HSP 90-alpha (Homo sapiens, UniProt P07900). In kind it is functional, organism-based.
The nature of assay [4]: cells. The assay is classed as functional, cell-based. The source holds these as a separate data set.
For a further assay, the system named is INS1. Put plainly: beta cell apoptosis inhibitors, cytokine rescue, dose response, luminescence, retest (AID 449756).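 Further: cell death triggered by IL-1 beta plus TNF-alpha plus IFN-gamma mixture; protective hits raise ATP signal compared with cytokine alone wells.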 The following applies: Rattus norvegicus. The assay is classed as functional, cell-based.
Assay [5] can be described thus: Luminescence Cell-Based Dose Response HTS to Identify Inhibitors of 5'UTR Stem-Loop Driven Prion Protein mRNA Translation in H4 Neuroglioblastoma Cells. [Related pubchem assays: 1827 (Project Summary), 1813 (Primary HTS)]. In kind it is functional.
The nature of assay [6]: NIH-3T3 fibroblast cytotoxicity, dose response, cytotoxicity control, cell-based, fluorescence, Alamar Blue, secondary assay (AID 2327).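 Further: NIH-3T3 mouse fibroblasts cultured with fluconazole at 8 µg/mL.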 In kind it is functional.
A further assay deals with HEK293. Put plainly: inhibitors of LMP1-driven NF-kB reporter, dose response, cell-based, HEK293, luciferase, cherry-pick (AID 588343). The assay is classed as functional. The following applies: Homo sapiens.
For assay [7], the target named is T1, Rac GTPase-activating protein 1 (Homo sapiens, UniProt Q9H0H5).
T1 sequence (Q9H0H5 whole entry): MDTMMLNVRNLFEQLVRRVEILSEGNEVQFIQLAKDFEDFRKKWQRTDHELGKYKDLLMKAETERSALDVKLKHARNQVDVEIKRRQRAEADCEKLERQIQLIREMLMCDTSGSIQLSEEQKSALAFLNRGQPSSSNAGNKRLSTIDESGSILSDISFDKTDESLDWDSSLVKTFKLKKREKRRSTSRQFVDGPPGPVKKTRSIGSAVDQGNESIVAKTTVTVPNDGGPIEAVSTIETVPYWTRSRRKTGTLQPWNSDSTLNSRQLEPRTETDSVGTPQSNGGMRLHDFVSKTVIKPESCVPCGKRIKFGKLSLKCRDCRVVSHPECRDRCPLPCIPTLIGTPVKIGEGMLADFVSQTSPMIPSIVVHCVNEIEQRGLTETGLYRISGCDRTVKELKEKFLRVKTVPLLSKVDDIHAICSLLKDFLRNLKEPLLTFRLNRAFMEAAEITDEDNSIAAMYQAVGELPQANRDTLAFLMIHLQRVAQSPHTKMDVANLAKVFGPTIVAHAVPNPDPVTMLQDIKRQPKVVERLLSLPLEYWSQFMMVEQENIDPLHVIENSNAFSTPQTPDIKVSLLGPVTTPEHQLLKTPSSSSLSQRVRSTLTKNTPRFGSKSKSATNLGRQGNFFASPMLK
Put plainly: MgcRacGAP GTPase-activating activity inhibitors, confirmation, biochemical, ADP Hunter fluorescence, primary and confirmatory (AID 624330). In kind it is functional.

The nature of assay [8]: inhibitors of firefly luciferase expression or activity, dose response, H4 neuroglioma cells, luminescence (AID 1990). The assay is classed as functional, cell-based.
Assay [9] is described as follows: C. albicans growth with fluconazole, confirmation, fluorescence, retest (AID 2467). The assay is classed as functional, cell-based.
The next assay concerns the target T2, Streptokinase A (Streptococcus pyogenes serotype M1, UniProt P10520).
T2 sequence (P10520 whole entry): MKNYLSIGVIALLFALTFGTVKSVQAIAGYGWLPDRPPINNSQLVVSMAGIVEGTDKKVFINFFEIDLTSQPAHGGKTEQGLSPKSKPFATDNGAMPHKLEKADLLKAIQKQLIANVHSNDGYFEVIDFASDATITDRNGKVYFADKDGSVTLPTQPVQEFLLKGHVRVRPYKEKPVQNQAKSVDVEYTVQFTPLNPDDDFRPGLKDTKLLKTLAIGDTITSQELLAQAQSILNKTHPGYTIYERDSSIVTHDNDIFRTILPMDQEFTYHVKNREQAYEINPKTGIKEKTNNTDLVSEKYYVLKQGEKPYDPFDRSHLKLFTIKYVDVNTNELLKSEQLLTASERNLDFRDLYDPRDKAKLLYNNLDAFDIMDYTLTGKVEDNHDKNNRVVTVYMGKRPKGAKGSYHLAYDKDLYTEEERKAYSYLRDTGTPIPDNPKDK
As to the kind of experiment: S. pyogenes streptokinase expression inhibitors, potency, dose response, plasminogen activation absorbance, OD405 (AID 1914).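 Further: secreted streptokinase activity via plasminogen activation per viability signal from cell pellet.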 In kind it is functional, Streptococcus pyogenes M1 GAS.

The target of assay [10] is Serine/threonine-protein phosphatase (Candida dubliniensis (strain CD36 / CBS 7987 / NCPF 3949 / NRRLY-17841) (Yeast), UniProt B9W6M3). As to the kind of experiment: calcineurin pathway inhibitors in yeast reporter, dose response, S. cerevisiae, CDRE-lacZ, luminescence, secondary (AID 2388).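 Further: yeast reporter cells carrying a calcineurin-responsive lacZ construct stimulated with calcium chloride; luminescent beta-galactosidase reporter signal in whole cells rather than isolated phosphatase activity; potency for inhibition where a drop in reporter signal means calcineurin blockade.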 In kind it is functional, cell-based.
Assay [11] in a line: inhibitors of SNCA 5'UTR-driven reporter translation, confirmation, H4 neuroglioma cells, luminescence (AID 1988). The assay is classed as functional, cell-based.
For assay [12], the target named is ATP-dependent molecular chaperone HSP82 (Candida albicans (strain WO-1) (Yeast), UniProt C4YTQ8). As to the kind of experiment: loss of DOC-induced GRE-beta-galactosidase reporter signal, dose response, Hsp90 inhibitor project, S. cerevisiae, luminescence (AID 2400).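 Further: beta-galactosidase luminescence from glucocorticoid response element reporter as proxy for Hsp90 function; inhibitor potency where signal loss means Hsp90 inhibition.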 In kind it is functional, cell-based.
The next assay addresses DNA topoisomerase (Yersinia pestis, UniProt A0A2S9PM60). Put plainly: Y. pestis Topo-I inhibitors, cleavage product readout, dose response, biochemical, cherry-pick (AID 588525).
In a further assay the test system is HeLa. As to the kind of experiment: HeLa cell cytotoxicity, dose response, cytotoxicity control, 48 h, plate reader, cherry-picks (AID 504942). The assay is classed as functional, cell-based. The following applies: Homo sapiens.
The target in assay [13] is Neurotensin receptor type 1 (Homo sapiens, UniProt P30989). The assay is classed as functional.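 Further: Image-based confirmatory dose-response assay measuring agonist activity at NTR1; NTR1-expressing U2OS osteosarcoma cells imaged for beta-arrestin GFP spot formation; agonist potency where compounds increase beta-arrestin recruitment.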
The target of assay [14] is T3, Hepatocyte nuclear factor 4-alpha (Homo sapiens, UniProt P41235).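 Further: biochemical luminescence-based dose-response counterscreen measuring inhibition of HNF4 dimerization, run alongside a screen for blockers of ABHD5–perilipin-5 interaction; split luciferase complementation of HNF4 fusion proteins in cell lysate measuring dimerization.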
T3 sequence (P41235 whole entry): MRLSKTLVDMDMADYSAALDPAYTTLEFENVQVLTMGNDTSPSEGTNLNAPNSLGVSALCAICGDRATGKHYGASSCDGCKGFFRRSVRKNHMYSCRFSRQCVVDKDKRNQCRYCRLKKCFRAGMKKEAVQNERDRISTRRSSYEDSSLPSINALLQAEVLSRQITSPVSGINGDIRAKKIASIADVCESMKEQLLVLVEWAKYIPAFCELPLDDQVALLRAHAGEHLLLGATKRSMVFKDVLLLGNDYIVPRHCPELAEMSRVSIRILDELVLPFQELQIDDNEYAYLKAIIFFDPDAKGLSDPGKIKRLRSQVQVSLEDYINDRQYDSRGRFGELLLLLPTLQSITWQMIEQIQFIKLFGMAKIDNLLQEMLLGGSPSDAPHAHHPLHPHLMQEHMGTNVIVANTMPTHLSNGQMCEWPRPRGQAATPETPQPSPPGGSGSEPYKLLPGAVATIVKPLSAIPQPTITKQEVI
The assay is classed as functional, cell-based.

For assay [15], the target named is G-protein coupled receptor 55 (Homo sapiens, UniProt Q9Y2T6). Put plainly: GPR55 agonists via beta-arrestin recruitment, primary screen, imaging, U2OS cells, beta-arrestin-GFP redistribution (AID 1961). In kind it is functional. Background: Activated receptors often draw arrestin, which recruitment assays turn into a signal.
For assay [16], the target named is T4, Acyl-homoserine lactone acylase PvdQ (Pseudomonas aeruginosa (strain LESB58), UniProt Q9I194).
T4 sequence (Q9I194 whole entry): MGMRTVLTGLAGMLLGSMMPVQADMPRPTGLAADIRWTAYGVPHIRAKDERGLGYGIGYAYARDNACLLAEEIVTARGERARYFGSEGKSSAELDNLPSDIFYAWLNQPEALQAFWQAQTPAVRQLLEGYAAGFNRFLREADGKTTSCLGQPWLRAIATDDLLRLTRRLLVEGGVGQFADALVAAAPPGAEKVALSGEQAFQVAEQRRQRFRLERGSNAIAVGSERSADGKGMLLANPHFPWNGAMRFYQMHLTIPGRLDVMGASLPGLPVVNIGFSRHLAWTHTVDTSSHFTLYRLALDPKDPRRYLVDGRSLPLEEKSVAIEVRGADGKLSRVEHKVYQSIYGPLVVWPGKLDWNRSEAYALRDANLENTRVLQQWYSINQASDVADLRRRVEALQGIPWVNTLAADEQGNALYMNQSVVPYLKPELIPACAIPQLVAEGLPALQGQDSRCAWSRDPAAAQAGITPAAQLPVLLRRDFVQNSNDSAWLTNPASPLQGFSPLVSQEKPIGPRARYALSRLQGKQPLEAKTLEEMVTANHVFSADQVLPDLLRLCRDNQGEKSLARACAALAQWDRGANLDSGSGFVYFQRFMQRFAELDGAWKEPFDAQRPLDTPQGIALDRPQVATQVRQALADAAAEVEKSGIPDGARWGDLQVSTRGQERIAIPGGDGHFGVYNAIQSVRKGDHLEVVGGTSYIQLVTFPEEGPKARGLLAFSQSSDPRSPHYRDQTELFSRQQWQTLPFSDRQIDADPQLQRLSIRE
As to the kind of experiment: P. aeruginosa PvdQ acylase inhibitors, dose response, biochemical, fluorescence, plate reader and imaging, cherry-picks (AID 493231).

Each structure is given as a SMILES string. Activity calls are given as the source filed them. For most assays here, no stated cut-off is given here; in the data, actives have a measured EC50 and inactives only a lower limit.

What is called EC50 is the concentration giving half of the maximal effect. For orientation: AC50 means the concentration giving half of the maximal activity seen. Usually IC50 stands for the concentration at which inhibition is half-maximal.

Sequence of ATP-dependent molecular chaperone HSP82 (C4YTQ8 whole entry): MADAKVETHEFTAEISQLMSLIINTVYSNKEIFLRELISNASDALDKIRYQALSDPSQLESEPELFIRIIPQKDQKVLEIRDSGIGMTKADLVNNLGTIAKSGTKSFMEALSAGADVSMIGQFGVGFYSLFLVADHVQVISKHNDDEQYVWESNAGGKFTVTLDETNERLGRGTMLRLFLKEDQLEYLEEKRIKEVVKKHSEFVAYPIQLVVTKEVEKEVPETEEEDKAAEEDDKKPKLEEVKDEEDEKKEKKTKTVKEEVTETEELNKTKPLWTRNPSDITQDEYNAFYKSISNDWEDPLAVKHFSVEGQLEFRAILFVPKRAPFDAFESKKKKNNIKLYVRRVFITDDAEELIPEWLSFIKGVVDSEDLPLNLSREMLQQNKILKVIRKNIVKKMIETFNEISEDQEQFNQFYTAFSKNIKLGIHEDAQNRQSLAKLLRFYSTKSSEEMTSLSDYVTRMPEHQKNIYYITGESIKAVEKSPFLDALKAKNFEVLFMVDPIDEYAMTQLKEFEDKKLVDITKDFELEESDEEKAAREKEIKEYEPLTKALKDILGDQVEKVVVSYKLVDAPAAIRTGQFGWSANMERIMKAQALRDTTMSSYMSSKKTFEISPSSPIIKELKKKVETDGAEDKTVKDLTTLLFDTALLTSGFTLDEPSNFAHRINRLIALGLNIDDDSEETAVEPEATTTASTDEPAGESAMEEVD
Sequence of G-protein coupled receptor 55 (Q9Y2T6 whole entry): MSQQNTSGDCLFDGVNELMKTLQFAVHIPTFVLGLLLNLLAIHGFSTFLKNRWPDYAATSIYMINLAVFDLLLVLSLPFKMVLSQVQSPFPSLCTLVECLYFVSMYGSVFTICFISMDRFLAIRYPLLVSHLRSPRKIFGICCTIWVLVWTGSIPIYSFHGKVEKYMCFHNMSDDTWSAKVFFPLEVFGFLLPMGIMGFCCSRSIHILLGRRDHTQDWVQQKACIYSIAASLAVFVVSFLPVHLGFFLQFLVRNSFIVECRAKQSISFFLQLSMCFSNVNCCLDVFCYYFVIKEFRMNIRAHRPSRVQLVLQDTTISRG
Sequence of Neurotensin receptor type 1 (P30989 whole entry, the tested form may be a part): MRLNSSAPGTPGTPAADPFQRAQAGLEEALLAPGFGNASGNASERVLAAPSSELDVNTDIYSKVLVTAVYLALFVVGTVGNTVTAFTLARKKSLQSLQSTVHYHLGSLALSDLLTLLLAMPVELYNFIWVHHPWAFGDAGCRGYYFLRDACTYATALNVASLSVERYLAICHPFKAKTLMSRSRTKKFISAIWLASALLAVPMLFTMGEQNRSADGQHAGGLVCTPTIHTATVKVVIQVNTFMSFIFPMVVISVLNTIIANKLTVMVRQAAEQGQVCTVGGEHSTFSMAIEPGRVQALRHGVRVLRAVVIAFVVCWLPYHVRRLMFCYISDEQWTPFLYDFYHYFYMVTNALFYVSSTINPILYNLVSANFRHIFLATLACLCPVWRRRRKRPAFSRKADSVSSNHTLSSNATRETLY
Sequence of DNA topoisomerase (A0A2S9PM60 whole entry): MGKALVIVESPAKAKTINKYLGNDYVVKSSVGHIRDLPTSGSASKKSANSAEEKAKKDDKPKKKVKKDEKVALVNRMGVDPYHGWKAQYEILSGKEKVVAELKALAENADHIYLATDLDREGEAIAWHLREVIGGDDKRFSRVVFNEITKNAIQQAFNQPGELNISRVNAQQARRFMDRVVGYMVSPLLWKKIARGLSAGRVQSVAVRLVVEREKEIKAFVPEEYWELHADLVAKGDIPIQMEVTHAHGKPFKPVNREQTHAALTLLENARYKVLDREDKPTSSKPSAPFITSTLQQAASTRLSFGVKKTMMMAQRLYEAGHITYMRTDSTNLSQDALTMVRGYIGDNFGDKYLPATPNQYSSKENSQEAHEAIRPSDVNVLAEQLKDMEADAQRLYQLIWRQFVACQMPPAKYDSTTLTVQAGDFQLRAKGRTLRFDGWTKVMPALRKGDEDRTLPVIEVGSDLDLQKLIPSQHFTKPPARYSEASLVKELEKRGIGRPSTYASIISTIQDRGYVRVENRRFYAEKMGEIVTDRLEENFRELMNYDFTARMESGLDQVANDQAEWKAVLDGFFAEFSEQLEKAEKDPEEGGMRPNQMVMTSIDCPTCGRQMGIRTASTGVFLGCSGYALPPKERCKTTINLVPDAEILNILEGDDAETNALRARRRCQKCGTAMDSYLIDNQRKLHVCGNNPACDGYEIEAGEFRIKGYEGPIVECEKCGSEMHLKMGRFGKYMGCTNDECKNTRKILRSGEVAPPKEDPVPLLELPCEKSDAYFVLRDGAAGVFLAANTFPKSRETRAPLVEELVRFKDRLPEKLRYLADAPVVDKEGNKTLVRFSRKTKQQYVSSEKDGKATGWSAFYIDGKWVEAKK
Sequence of Serine/threonine-protein phosphatase (B9W6M3 whole entry): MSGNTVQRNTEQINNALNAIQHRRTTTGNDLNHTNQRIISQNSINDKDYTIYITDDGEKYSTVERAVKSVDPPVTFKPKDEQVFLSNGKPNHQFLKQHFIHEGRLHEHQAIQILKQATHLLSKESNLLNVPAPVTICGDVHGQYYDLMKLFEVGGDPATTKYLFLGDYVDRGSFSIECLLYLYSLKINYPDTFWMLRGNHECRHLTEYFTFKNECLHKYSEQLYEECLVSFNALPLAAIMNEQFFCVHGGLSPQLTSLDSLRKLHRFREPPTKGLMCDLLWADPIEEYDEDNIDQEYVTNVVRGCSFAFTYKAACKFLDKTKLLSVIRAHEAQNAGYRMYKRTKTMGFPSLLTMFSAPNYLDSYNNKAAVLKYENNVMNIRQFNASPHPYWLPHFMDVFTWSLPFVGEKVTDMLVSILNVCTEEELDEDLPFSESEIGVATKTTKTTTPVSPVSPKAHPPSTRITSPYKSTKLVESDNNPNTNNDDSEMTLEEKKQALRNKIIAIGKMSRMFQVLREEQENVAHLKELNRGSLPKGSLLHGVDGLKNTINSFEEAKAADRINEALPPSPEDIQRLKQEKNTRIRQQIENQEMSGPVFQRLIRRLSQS

As to `O=C(N/N=C/c1sc2ccccc2c1O)c1cccc2ccccc12`, the EC50 was 12.4 µM (active) with Streptococcus; 12.5 µM (active) in “cells [1]”; 3.44 µM (active) in assay [2]; > 350 µM (not active) in the assay “cells [4]”; 10.4 µM (active) in [5]; > 160 µM (inactive) in assay [6]. Besides, the EC50 in [8] was 10.6 µM (active); in assay [9], 0.738 µM (active); on Streptokinase A, > 150 µM (not active); in assay [10], > 180 µM (inactive); in assay [11], 9 µM (active); in [12] it was 9.14 µM (active). Also, the results for the AC50 (in assay [3]; in the assay on INS1; in the assay with HEK293) were 14 µM (active), 1.1 µM (active) and 5.14 µM (active), respectively. The IC50 in assay [7] was 52.9 µM (active).

For the compound `CC(C)(C)c1ccc(OCCn2nc(C(=O)O)c3ccccc3c2=O)cc1`, the AC50 on DNA topoisomerase is 9.12 µM (active).

Consider `O=CC1=C(c2ccccc2)Oc2ccccc2O1`, for which the AC50 in the assay on HeLa was 23.9 µM (active); in assay [16] it was 2.14 µM (active). Also, the EC50 in [13] was 16 µM (active); in [15], 2.28 µM (active). The IC50 in assay [14] is 10.4 µM (inactive).

Values taken from ChEMBL document CHEMBL1201862, “PubChem BioAssay data set” (2004).
